Experimental data from patent EP4410314A1, “COMBINATION THERAPY COMPRISING ANTI-CD22 ANTIBODY-DRUG CONJUGATE AND IRAK1 INHIBITOR” (ADC Therapeutics SA, priority 2023, dated 2024).

Assays:
Type in all cases: cell-based, human
[1] = system: KARPAS-299; experiment: In vitro cytotoxicity, KARPAS-299; conditions: KARPAS-299 (ALCL), CD22-negative; mean ± SEM
[2] = system: Ramos; experiment: In vitro cytotoxicity, Ramos; conditions: Ramos (BL), CD22-positive; mean ± SEM
[3] = system: REH; experiment: In vitro cytotoxicity, REH; conditions: REH (B-ALL), CD22-positive; mean ± SEM
[4] = system: KARPAS-299; experiment: DNA interstrand crosslinks, single cell gel electrophoresis (Comet) assay, KARPAS-299; conditions: KARPAS-299 (CD22-negative), over 48 hours following a 2-hour treatment
Procedure: (§1) Quantification of in vitro DNA interstrand crosslinks (ICLs) was performed using the single cell gel electrophoresis (Comet) assay.
(§2) DNA ICLs were measured using a modification of the single-cell gel electrophoresis (Comet) assay, and crosslinking was expressed as the percentage decrease in Olive tail moment (OTM) versus control irradiated cells. […] Immediately after the drug incubation period, a low level of ICLs (3%) was observed, which increased over time to near peak levels (≈50%) at 12 hours and persisted up to 48 hours. […] In this cell line, SG3199 produced a high level of ICL (≈50%), similar to that observed in the Ramos cell line.

[5] = system: NAMALWA; experiment: In vitro cytotoxicity, NAMALWA; conditions: NAMALWA (BL), CD22-positive; mean ± SEM
[6] = system: KM-H2; experiment: In vitro cytotoxicity, KM-H2; conditions: KM-H2 (HL), CD22-negative; mean ± SEM
[7] = system: Daudi; experiment: In vitro cytotoxicity, Daudi; conditions: Daudi (BL), CD22-positive; mean ± SEM
[8] = system: GRANTA-519; experiment: In vitro cytotoxicity, GRANTA-519; conditions: GRANTA-519 (MCL), CD22-positive; mean ± SEM
[9] = system: DO HH-2; experiment: In vitro cytotoxicity, DO HH-2; conditions: DO HH-2 (FL), CD22-positive; mean ± SEM
[10] = system: SEM cells; experiment: In vitro cytotoxicity, SEM; conditions: SEM (B-ALL), CD22-positive; mean ± SEM
[11] = system: Ramos cells; experiment: DNA interstrand crosslinks, single cell gel electrophoresis (Comet) assay, Ramos
Procedure: as §1, §2

[12] = system: SUP-T1; experiment: In vitro cytotoxicity, SUP-T1; conditions: SUP-T1 (T-LL), CD22-negative; mean ± SEM
[13] = system: MEC-2; experiment: In vitro cytotoxicity, MEC-2; conditions: MEC-2 (CLL), CD22-positive; mean ± SEM
[14] = system: NALM-6; experiment: In vitro cytotoxicity, NALM-6; conditions: NALM-6 (B-ALL), CD22-positive; mean ± SEM

COc1cc2c(cc1OCCCCCOc1cc3c(cc1OC)C(=O)N1C=C(C)C[C@H]1C=N3)N=C[C@@H]1CC(C)=CN1C2=O [SG3199]
IC50 [1]: 0.025 ± 0.001 nM
IC50 [2]: 0.016 ± 0.001 nM
IC50 [3]: 0.001 nM
DNA ICLs, percentage decrease in Olive tail moment (OTM) versus control irradiated cells [4]: ≈ 50%
IC50 [5]: 0.014 ± 0.001 nM
IC50 [6]: 0.036 ± 0.005 nM
IC50 [7]: 0.008 ± 0.001 nM
IC50 [8]: 0.002 nM
IC50 [9]: 0.007 ± 0.001 nM
IC50 [10]: 0.005 ± 0.002 nM
DNA ICLs, percentage decrease in Olive tail moment (OTM) versus control irradiated cells ([11]; 2-hour exposure, immediately after the drug incubation period): 46%
DNA ICLs, percentage decrease in Olive tail moment (OTM) versus control irradiated cells ([11]; after 2 hours following drug incubation): 56%
persistence of DNA ICLs ([11]; following 2-hour exposure): up to 48 hours
IC50 [12]: 0.026 ± 0.005 nM
IC50 [13]: 0.033 ± 0.009 nM
IC50 [14]: 0.002 nM
